Source: the supplement of paper PMC10307832

How the values were obtained:
Test in all cases: relative viability (nuclei count vs DMSO), 5 days (fraction); higher = more cells survive
[1] = compound: C1=CC=C2C(=C1)N=C(S2)C(C#N)C3=NC(=NC=C3)NCCC4=CN=CC=C4 + NC(=O)Nc1cc(-c2cccc(F)c2)sc1C(=O)N[C@H]1CCCNC1 [AZD7762] (partner 0.2 µM)
Method in brief: (§1)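 Each reported value is a median over duplicate plates. It expresses relative viability: treated-well nuclei count divided by vehicle-well nuclei count. Lung cancer cell lines in 1536-well plates were dosed by pin tool a day after seeding, alone with one drug or with a fixed anchor-drug dose plus five library-drug doses (not always all listed) in √10 steps, and nuclei were counted after 5 days.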

Vandetanib + Foretinib = compound: COc1cc2/c(=N/c3ccc(Br)cc3F)nc[nH]c2cc1OCC1CCN(C)CC1 [Vandetanib] + COc1cc2c(Oc3ccc(NC(=O)C4(C(=O)Nc5ccc(F)cc5)CC4)cc3F)ccnc2cc1OCCCN1CCOCC1 [Foretinib] (partner 0.25 µM)
Method in brief: as §1

[2] = compound: C1=CC=C2C(=C1)N=C(S2)C(C#N)C3=NC(=NC=C3)NCCC4=CN=CC=C4 + COc1cccc2cc(-c3nc([C@H]4CC[C@H](C(=O)O)CC4)n4ncnc(N)c34)[nH]c12 [OSI-027] (partner 0.5 µM)
Method in brief: as §1

NVP-TAE684 + Dasatinib = compound: COc1cc(N2CCC(N3CCN(C)CC3)CC2)ccc1Nc1ncc(Cl)c(Nc2ccccc2S(=O)(=O)C(C)C)n1 [NVP-TAE684] + Cc1nc(Nc2ncc(C(=O)Nc3c(C)cccc3Cl)s2)cc(N2CCN(CCO)CC2)n1 [Dasatinib] (partner 0.075 µM)
Method in brief: as §1

Cell Line	relative viability ([1]; first compound 0.005 µM)	relative viability ([1]; first compound 0.01581 µM)	relative viability ([1]; first compound 0.05 µM)	relative viability ([1]; first compound 0.1581 µM)	relative viability ([1]; first compound 0.5 µM)	relative viability (Vandetanib + Foretinib; first compound 0.02 µM)	relative viability (Vandetanib + Foretinib; first compound 0.06325 µM)	relative viability (Vandetanib + Foretinib; first compound 0.2 µM)	relative viability (Vandetanib + Foretinib; first compound 0.6325 µM)	relative viability (Vandetanib + Foretinib; first compound 2 µM)	relative viability ([2]; first compound 0.005 µM)	relative viability ([2]; first compound 0.01581 µM)	relative viability ([2]; first compound 0.05 µM)	relative viability ([2]; first compound 0.1581 µM)	relative viability ([2]; first compound 0.5 µM)	relative viability (NVP-TAE684 + Dasatinib; first compound 0.2 µM)	relative viability (NVP-TAE684 + Dasatinib; first compound 0.6325 µM)	relative viability (NVP-TAE684 + Dasatinib; first compound 2 µM)
NCI-H1703	0.118	0.121	0.123	0.109	0.108	0.338	0.346	0.42	0.328	0.339	–	–	–	–	–	–	–	–
NCI-H727	0.788	0.533	0.667	0.626	0.618	0.973	0.831	0.539	1.18	0.674	0.814	0.526	0.568	0.748	0.508	0.383	0.273	0.232
NCI-H838	0.889	0.891	0.907	0.92	0.836	1.08	1.01	0.282	1.06	1.05	0.4	0.351	0.361	0.459	0.396	0.295	0.23	0.238
NCI-H1944	0.541	0.557	0.603	0.466	0.456	0.895	0.887	0.904	0.813	0.783	0.396	0.343	0.417	0.513	0.359	0.212	0.202	0.161
SK-LU-1	–	–	–	–	–	0.819	0.564	0.197	0.798	0.805	0.278	0.374	0.349	0.345	0.297	0.188	0.138	0.0928
LC-2-ad	0.674	0.847	0.83	0.968	0.692	1	0.854	0.939	0.801	0.656	0.724	0.803	0.912	0.875	0.695	0.293	–	0.228
LOU-NH91	0.687	0.758	0.734	0.798	0.724	0.972	0.807	0.787	0.713	0.578	0.673	0.689	0.703	0.733	0.729	0.544	0.453	0.231
NCI-H2009	–	–	–	–	–	1.26	1.14	0.197	1.27	1.22	0.649	0.547	0.564	0.726	0.603	0.207	0.157	0.172
NCI-H647	0.27	0.281	0.513	0.512	0.372	1.17	1.2	0.259	1.35	1.21	0.638	0.585	0.491	0.756	0.527	0.0949	0.103	0.0648
EBC-1	–	–	–	–	–	0.0974	0.0982	0.108	0.0939	0.0987	–	–	–	–	–	–	–	–
NCI-H661	–	–	–	–	–	0.972	0.997	0.999	1.07	0.847	0.638	0.687	0.689	0.748	0.682	1.09	0.677	0.622
